Reference: PubChem BioAssay (NCI)
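GI50 is the concentration that inhibits growth by half. At the TGI there is no net growth.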

What was measured:
Assay in all cases: NCI anticancer screen, dose series, 384-well format
[1] = tested on: HCC-2998 colon
[2] = tested on: SF-268 CNS
[3] = tested on: NCI-H23 lung
[4] = tested on: HT29 colon
[5] = tested on: MDA-MB-231 breast
[6] = tested on: SNB-75 CNS
[7] = tested on: BT-549 breast
[8] = tested on: HCT-15 colon
[9] = tested on: SK-MEL-5 melanoma
[10] = tested on: MALME-3M melanoma
[11] = tested on: SNB-19 CNS
[12] = tested on: A549 NSCLC
[13] = tested on: SK-OV-3 ovarian
[14] = tested on: DU-145 prostate
[15] = tested on: KM12 colon
[16] = tested on: T-47D breast
[17] = tested on: PC-3 prostate
[18] = tested on: IGROV1 ovarian
[19] = tested on: NCI-H322M lung
[20] = tested on: RPMI-8226 leukemia
[21] = tested on: UACC-257 melanoma
[22] = tested on: MOLT-4 leukemia
[23] = tested on: EKVX NSCLC
[24] = tested on: HL-60(TB) leukemia
[25] = tested on: RXF 393 renal
[26] = tested on: SF-539 CNS
[27] = tested on: U251 glioblastoma
[28] = tested on: MDA-MB-435 melanoma
[29] = tested on: NCI-H460 NSCLC
[30] = tested on: NCI-H226 lung
[31] = tested on: CCRF-CEM leukemia
[32] = tested on: OVCAR-8 ovarian
[33] = tested on: UACC-62 melanoma
[34] = tested on: SR leukemia
[35] = tested on: HS 578T breast
[36] = tested on: HOP-62 NSCLC
[37] = tested on: M14 melanoma
[38] = tested on: SN12C renal
[39] = tested on: HOP-92 NSCLC
[40] = tested on: SK-MEL-28 melanoma
[41] = tested on: TK-10 renal
[42] = tested on: OVCAR-3 ovarian

Compound: COc1ccc(F)c(F)c1C(=O)c1cnc(NC2CCN(S(C)(=O)=O)CC2)nc1N
- GI50 [1]: 289 nM
- TGI [1]: 1910 nM
- GI50 [2]: 129 nM
- TGI [2]: 361 nM
- GI50 [3]: 140 nM
- TGI [3]: 774 nM
- GI50 [4]: 206 nM
- TGI [4]: 2050 nM
- GI50 [5]: 201 nM
- TGI [5]: 3700 nM
- GI50 [6]: 86.4 nM
- TGI [6]: 1730 nM
- GI50 [7]: 44.1 nM
- TGI [7]: 434 nM
- GI50 [8]: 187 nM
- TGI [8]: > 100000 nM
- GI50 [9]: 82 nM
- TGI [9]: 609 nM
- GI50 [10]: 379 nM
- TGI [10]: 2000 nM
- GI50 [11]: 348 nM
- TGI [11]: > 100000 nM
- GI50 [12]: 169 nM
- TGI [12]: > 100000 nM
- GI50 [13]: 1030 nM
- TGI [13]: > 100000 nM
- GI50 [14]: 211 nM
- TGI [14]: 977 nM
- GI50 [15]: 108 nM
- TGI [15]: 456 nM
- GI50 [16]: 306 nM
- TGI [16]: > 100000 nM
- GI50 [17]: 284 nM
- TGI [17]: 2130 nM
- GI50 [18]: 222 nM
- TGI [18]: > 100000 nM
- GI50 [19]: 215 nM
- TGI [19]: 602 nM
- GI50 [20]: 20.9 nM
- TGI [20]: 124 nM
- GI50 [21]: 1030 nM
- TGI [21]: 2620 nM
- GI50 [22]: 91.2 nM
- TGI [22]: 396 nM
- GI50 [23]: 424 nM
- TGI [23]: 3160 nM
- GI50 [24]: 15.8 nM
- TGI [24]: 125 nM
- GI50 [25]: 159 nM
- TGI [25]: 345 nM
- GI50 [26]: 137 nM
- TGI [26]: 501 nM
- GI50 [27]: 278 nM
- TGI [27]: > 100000 nM
- GI50 [28]: 251 nM
- TGI [28]: 1600 nM
- GI50 [29]: 30.2 nM
- TGI [29]: 162 nM
- GI50 [30]: 164 nM
- TGI [30]: 753 nM
- GI50 [31]: 72 nM
- TGI [31]: 234 nM
- GI50 [32]: 144 nM
- TGI [32]: 917 nM
- GI50 [33]: 138 nM
- TGI [33]: 453 nM
- GI50 [34]: 15.7 nM
- TGI [34]: 39 nM
- GI50 [35]: 206 nM
- TGI [35]: 492 nM
- GI50 [36]: 135 nM
- TGI [36]: 466 nM
- GI50 [37]: 346 nM
- TGI [37]: 1640 nM
- GI50 [38]: 139 nM
- TGI [38]: 681 nM
- GI50 [39]: 310 nM
- TGI [39]: > 100000 nM
- GI50 [40]: 161 nM
- TGI [40]: 1580 nM
- GI50 [41]: 304 nM
- TGI [41]: > 100000 nM
- GI50 [42]: 305 nM
- TGI [42]: 1450 nM
